How the values were obtained:
[1] = test system: cardiolipin; conditions: cited from earlier work
[2] = biological target: ACSVL5 (FATP4) (Mus musculus, UniProt Q91VE0); conditions: cited from earlier work
[3] = test system: lung (NCI-H23) cancer cell line; conditions: cited from earlier work
[4] = test system: colon (HCT-15) cancer cell line; conditions: cited from earlier work
[5] = biological target: T1, ACSL6 (Rattus norvegicus, UniProt P33124); conditions: cited from earlier work
T1 sequence (P33124 1-697): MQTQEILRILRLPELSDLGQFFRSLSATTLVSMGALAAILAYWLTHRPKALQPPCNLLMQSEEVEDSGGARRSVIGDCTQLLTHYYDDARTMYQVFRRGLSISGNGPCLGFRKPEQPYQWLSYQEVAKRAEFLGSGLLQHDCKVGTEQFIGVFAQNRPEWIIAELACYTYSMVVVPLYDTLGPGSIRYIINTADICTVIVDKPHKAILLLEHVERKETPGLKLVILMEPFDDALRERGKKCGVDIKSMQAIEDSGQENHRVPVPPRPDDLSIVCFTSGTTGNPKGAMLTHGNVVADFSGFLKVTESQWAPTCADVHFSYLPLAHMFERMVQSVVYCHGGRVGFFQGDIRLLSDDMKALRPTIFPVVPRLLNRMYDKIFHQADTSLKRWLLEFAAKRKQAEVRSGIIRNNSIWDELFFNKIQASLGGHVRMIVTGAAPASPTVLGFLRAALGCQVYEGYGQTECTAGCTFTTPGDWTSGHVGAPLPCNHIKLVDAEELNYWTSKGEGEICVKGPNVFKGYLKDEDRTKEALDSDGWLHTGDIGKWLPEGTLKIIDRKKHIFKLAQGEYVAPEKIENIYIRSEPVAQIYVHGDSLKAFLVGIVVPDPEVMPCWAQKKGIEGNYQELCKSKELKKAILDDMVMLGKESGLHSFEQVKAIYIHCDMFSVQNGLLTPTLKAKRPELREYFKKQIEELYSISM

[6] = biological target: ACSL4 (Rattus norvegicus, UniProt O35547); conditions: cited from earlier work
[7] = biological target: ACSL3 (Rattus norvegicus, UniProt Q63151); conditions: cited from earlier work
[8] = biological target: ACSVL1 (FATP2) (Homo sapiens, UniProt O14975); conditions: cited from earlier work
[9] = test system: brain (SF268) cancer cell line; conditions: cited from earlier work
[10] = biological target: T2, ACSBG2 (Homo sapiens, UniProt Q5FVE4); conditions: cited from earlier work
T2 sequence (Q5FVE4 1-666): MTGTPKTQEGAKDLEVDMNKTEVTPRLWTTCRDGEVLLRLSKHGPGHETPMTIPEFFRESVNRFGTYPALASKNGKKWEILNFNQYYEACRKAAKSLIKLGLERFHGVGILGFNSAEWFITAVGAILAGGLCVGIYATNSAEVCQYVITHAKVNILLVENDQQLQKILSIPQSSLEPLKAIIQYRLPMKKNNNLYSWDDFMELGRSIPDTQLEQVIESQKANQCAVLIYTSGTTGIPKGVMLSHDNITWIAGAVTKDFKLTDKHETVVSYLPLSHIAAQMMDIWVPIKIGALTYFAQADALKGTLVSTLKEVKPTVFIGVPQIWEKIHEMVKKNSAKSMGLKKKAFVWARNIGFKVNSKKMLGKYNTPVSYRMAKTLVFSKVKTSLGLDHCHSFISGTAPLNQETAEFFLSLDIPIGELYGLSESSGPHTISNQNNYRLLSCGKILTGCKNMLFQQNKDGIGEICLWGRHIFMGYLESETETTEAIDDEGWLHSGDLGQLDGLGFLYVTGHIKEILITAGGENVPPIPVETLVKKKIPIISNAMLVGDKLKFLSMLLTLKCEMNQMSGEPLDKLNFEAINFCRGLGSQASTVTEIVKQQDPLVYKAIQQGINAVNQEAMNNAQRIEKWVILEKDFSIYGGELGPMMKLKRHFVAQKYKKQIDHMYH

[11] = biological target: T3, ACSL5 (Rattus norvegicus, UniProt O88813); conditions: cited from earlier work
T3 sequence (O88813 1-683): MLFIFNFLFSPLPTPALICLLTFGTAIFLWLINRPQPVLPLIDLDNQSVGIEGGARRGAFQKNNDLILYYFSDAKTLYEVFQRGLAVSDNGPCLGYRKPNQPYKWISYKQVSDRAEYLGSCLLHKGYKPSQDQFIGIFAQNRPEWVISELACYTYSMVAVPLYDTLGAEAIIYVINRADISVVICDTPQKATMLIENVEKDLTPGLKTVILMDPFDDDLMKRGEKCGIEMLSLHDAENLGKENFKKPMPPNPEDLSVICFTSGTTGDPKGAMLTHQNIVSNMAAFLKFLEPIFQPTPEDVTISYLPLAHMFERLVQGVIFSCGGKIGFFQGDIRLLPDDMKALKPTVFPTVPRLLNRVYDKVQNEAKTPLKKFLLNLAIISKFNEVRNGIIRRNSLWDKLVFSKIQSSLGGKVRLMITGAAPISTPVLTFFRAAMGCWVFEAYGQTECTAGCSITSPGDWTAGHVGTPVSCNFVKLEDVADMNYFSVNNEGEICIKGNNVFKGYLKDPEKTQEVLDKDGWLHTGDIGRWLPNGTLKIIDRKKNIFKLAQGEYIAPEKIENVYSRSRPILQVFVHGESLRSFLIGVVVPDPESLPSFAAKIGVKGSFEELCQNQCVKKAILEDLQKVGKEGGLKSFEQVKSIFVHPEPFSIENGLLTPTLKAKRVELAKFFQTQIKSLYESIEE

[12] = biological target: T4, ACSL1 (Rattus norvegicus, UniProt P18163); conditions: cited from earlier work
T4 sequence (P18163 1-699): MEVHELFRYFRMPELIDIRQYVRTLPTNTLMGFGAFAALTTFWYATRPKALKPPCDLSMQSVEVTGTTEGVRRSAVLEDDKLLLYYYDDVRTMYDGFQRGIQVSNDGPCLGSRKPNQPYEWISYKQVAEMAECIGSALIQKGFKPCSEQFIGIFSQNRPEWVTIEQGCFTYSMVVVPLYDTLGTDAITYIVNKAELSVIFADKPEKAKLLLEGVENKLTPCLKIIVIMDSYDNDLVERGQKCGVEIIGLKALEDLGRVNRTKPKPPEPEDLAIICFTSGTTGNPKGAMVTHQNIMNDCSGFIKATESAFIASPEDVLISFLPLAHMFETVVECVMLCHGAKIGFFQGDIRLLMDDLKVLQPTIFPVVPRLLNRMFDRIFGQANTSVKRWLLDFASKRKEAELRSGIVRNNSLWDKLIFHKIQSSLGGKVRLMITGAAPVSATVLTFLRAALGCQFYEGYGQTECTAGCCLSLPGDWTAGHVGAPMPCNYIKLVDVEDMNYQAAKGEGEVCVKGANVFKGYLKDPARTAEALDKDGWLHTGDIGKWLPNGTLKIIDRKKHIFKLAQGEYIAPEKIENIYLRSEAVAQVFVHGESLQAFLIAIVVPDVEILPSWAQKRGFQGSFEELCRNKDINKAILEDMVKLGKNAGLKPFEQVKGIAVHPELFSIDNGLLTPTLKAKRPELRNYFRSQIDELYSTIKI

[13] = test system: ACSVL3 mRNA; assay: Transient ACSVL3 KD in U87 cells, ACSVL3 expression by immunofluorescence and Western blot; format: cell-based, human; conditions: day 3 post-transfection, indirect immunofluorescence and Western blot
Procedure: Transient ACSVL3 KD. Four different small interfering RNA (siRNA) constructs targeting different regions of ACSVL3 mRNA were produced using the pSilencer™ kit (Applied Biosystems/Ambion; Austin Tex.). U87 cells were transfected with each construct using siPORT™ Lipid reagent (Applied Biosystems/Ambion). ACSVL3 expression was assessed on day 3 post-transfection by indirect immunofluorescence and Western blot and found to be decreased by siRNA ACSVL3-3 and -4, but not -1 or -2 (data not shown). siRNA ACSVL3-3 (5′-CACGGCTCGCGGCGCTTTA-3′ (SEQ ID NO: 1)) targets by 394-412 of ACSVL3 mRNA and ACSVL3-4 (5′-CGTCTATGGAGTCACTGTG-3′ (SEQ ID NO: 2)) targets by 1861-1879. Transient ACSVL3 KD in Mayo-22 cells was achieved by transfection with ACSVL3-3 using siPORT™ Lipid reagent. Control cells received siRNA with a scrambled nucleotide sequence (supplied by Ambion).
Immunohistochemistry, immunofluorescence, and Western blotting. […] ACSVL3 was detected on Western blots with SuperSignal West Pico chemiluminescent substrate (Pierce Biotechnology, Rockford Ill.). Total and phospho-Akt (ser473) were detected with antibodies from BD Biosciences (San Jose Calif.) and Cell Signaling Technology (Danvers Mass.), respectively, and quantitated with the LiCOR Odyssey dual wavelength infrared system. Protein was determined by the method of Lowry et al. (16).

Sequence of ACSVL5 (FATP4) (Q91VE0 whole entry): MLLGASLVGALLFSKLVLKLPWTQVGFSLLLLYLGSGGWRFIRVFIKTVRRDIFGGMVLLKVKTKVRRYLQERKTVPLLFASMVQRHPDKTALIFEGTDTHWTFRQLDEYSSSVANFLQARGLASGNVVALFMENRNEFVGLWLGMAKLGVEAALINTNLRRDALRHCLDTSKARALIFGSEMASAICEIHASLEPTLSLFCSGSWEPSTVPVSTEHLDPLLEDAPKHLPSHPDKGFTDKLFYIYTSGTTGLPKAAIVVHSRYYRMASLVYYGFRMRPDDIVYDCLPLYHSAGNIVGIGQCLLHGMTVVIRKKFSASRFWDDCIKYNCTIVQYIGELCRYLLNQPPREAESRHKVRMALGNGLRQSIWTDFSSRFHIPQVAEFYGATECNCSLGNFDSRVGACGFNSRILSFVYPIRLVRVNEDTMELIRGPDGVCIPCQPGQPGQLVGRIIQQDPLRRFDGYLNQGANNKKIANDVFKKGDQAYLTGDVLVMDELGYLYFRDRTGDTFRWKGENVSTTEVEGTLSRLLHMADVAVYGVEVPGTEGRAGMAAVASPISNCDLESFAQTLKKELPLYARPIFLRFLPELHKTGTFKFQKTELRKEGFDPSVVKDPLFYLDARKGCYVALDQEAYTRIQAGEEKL
Sequence of ACSVL1 (FATP2) (O14975 whole entry): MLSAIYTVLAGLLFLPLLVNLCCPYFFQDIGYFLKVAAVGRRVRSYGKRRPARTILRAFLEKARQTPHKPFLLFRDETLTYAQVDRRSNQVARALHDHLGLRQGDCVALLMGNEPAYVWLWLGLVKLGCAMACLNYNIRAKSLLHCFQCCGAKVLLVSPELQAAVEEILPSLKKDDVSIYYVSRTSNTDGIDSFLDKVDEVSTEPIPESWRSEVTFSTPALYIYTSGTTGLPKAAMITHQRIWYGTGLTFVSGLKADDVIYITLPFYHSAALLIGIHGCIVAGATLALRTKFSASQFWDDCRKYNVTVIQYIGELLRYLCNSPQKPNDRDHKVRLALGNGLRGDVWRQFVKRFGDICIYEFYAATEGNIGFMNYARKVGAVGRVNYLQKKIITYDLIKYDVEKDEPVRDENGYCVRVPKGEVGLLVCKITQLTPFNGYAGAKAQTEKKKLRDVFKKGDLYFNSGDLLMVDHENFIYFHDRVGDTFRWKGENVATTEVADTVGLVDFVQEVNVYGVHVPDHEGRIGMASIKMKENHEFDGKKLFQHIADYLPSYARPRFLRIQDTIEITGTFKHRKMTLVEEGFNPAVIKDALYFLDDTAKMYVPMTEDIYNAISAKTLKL
Sequence of ACSL3 (Q63151 whole entry): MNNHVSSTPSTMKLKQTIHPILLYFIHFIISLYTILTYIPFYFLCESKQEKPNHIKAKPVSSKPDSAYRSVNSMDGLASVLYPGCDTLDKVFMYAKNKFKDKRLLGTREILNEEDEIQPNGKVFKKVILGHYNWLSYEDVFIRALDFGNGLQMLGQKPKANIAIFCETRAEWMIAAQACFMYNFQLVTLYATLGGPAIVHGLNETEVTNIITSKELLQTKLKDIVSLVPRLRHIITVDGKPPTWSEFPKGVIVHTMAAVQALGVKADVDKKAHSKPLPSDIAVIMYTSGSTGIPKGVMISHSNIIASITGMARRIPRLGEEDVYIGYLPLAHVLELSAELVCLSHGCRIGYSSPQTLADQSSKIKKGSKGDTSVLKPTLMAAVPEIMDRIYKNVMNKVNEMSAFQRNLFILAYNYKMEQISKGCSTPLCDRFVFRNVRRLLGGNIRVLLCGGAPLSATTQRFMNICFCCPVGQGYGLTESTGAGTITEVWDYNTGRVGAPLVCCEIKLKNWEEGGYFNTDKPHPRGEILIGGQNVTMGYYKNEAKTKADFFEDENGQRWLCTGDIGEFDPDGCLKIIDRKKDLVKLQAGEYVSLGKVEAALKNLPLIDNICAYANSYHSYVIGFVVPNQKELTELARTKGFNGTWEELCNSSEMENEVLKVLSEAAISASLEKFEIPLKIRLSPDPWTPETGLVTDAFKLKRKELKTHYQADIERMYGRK
Sequence of ACSL4 (O35547 whole entry): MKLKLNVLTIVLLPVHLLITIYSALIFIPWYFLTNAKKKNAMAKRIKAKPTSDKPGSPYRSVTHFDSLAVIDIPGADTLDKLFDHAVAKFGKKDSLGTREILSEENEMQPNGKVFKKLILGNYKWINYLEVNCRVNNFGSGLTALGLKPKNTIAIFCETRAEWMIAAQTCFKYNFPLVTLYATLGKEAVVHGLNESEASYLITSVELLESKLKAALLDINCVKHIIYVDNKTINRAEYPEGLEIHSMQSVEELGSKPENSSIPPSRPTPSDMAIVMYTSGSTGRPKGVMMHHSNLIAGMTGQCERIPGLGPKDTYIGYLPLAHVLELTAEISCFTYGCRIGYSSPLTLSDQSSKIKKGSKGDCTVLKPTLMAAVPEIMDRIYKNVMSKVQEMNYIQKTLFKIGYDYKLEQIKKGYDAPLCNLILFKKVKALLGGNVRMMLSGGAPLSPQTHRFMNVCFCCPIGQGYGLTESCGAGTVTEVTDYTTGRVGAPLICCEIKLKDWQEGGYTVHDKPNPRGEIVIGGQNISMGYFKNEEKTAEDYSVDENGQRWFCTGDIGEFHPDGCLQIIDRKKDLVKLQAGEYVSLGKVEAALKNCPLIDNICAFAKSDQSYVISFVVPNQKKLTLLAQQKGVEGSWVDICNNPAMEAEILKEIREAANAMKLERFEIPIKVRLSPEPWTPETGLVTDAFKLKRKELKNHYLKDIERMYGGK

## CCC/C=C/C/C=C/C=C/C=N/NN=O [triacsin c]
[1]
  mitochondrial level of cardiolipin: decreased
[2]
  inhibition of ACSVL5 (FATP4): does not inhibit
[3]
  caspase activity: induced caspase activity
[4]
  caspase activity: induced caspase activity
[5]
  inhibition of ACSL6: does not inhibit
[6]
  inhibition of ACSL4: inhibits
[7]
  inhibition of ACSL3: inhibits
[8]
  inhibition of ACSVL1 (FATP2): inhibits
[9]
  caspase activity: induced caspase activity
[10]
  inhibition of ACSBG2: does not inhibit
[11]
  inhibition of ACSL5: does not inhibit
[12]
  inhibition of ACSL1: inhibits

## siRNA ACSVL3-4: siRNA 5′-CGTCTATGGAGTCACTGTG-3′ (SEQ ID NO: 2), targets 1861-1879 of ACSVL3 mRNA (listed as DNA, chemistry not given here)
[13]
  ACSVL3 expression: decreased
